Test results published in patent US8163779B2, “Glucokinase activators” (Takeda San Diego, Inc., priority 2006, dated 2012).

Target: T1, glucokinase (GK) (Homo sapiens, UniProt P35557)
T1 construct: I.D. No. 1 corresponds to residues 12-465 of glucokinase; made in house; host or cells: E. coli DH10b-T1r
T1 sequence (P35557 with tags, fused parts or gaps isoform P35557-2): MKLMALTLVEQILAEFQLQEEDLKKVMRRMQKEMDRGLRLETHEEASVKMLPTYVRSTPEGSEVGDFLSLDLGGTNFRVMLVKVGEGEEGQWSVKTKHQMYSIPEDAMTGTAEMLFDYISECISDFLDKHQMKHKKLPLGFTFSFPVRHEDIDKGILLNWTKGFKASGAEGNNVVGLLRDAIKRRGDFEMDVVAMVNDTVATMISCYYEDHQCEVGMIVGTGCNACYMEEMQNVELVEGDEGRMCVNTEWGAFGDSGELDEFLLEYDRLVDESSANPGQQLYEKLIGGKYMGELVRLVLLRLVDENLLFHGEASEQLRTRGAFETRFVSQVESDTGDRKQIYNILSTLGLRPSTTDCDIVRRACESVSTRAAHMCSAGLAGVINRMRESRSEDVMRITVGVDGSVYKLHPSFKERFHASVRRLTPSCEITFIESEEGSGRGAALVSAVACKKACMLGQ
Assay: enzymatic glucokinase activity assay (ATP consumption, KinaseGlo luminescence)
Assay type: biochemical
Details: recombinant GK residues 12-465; 5 μM ATP, 5 mM Glucose; Kact = concentration that displays 50% of the maximal increase in GK activity; read-out: pKact
Procedure, shortened: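 Recombinant human glucokinase expressed in E. coli was run in 25 mM Hepes pH 7.2 with 10 mM MgCl2, 1 mM DTT, 5 μM ATP, 5 mM glucose and 2% DMSO for 60 min at room temperature. Remaining ATP was read by KinaseGlo luminescence; pKact came from non-linear curve fits.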

SMILES	EC50 [µM]
COc1ccc2nc(NC(=O)[C@@H](CC3CCOCC3)n3c(C)cc(S(=O)(=O)c4ccoc4C)cc3=O)sc2n1 [Example 63, (R)-N-(5-methoxythiazolo[5,4-b]pyridin-2-yl)-2-(6-methyl-4-(2-methylfuran-3-ylsulfonyl)-2-oxopyridin-1(2H)-yl)-3-(tetrahydro-2H-pyran-4-yl)propanamide]	> 15.8
Cc1occc1S(=O)(=O)c1cc(C)n([C@@H](CC2CCOCC2)C(=O)Nc2ncc(Cl)s2)c(=O)c1 [Example 64, (S)-N-(5-chlorothiazol-2-yl)-2-(6-methyl-4-(2-methylfuran-3-ylsulfonyl)-2-oxopyridin-1(2H)-yl)-3-(tetrahydro-2H-pyran-4-yl)propanamide]	1.58 to 15.8
Cc1occc1S(=O)(=O)c1cc(C)n([C@H](CC2CCOCC2)C(=O)Nc2ncc(Cl)s2)c(=O)c1 [Example 65, (R)-N-(5-chlorothiazol-2-yl)-2-(6-methyl-4-(2-methylfuran-3-ylsulfonyl)-2-oxopyridin-1(2H)-yl)-3-(tetrahydro-2H-pyran-4-yl)propanamide]	> 15.8
Cn1ccc(NC(=O)C(CC2CCOCC2)n2ccc(S(=O)(=O)C3CC3)cc2=O)n1 (stereo not shown) [Example 66, 2-(4-(cyclopropylsulfonyl)-2-oxopyridin-1(2H)-yl)-N-(1-methyl-1H-pyrazol-3-yl)-3-(tetrahydro-2H-pyran-4-yl)propanamide]	> 15.8
COc1ccc2nc(NC(=O)C(CC3CCOCC3)n3ccc(S(=O)(=O)CCCO)cc3=O)sc2n1 (stereo not shown) [Example 67, 2-(4-(3-hydroxypropylsulfonyl)-2-oxopyridin-1(2H)-yl)-N-(5-methoxythiazolo[5,4-b]pyridin-2-yl)-3-(tetrahydro-2H-pyran-4-yl)propanamide]	> 15.8
COc1ccc2nc(NC(=O)C(CC3CCCCC3)n3ccc(S(=O)(=O)C4CC4)cc3=O)sc2n1 (stereo not shown) [Example 68, 3-cyclohexyl-2-(4-(cyclopropylsulfonyl)-2-oxopyridin-1(2H)-yl)-N-(5-methoxythiazolo[5,4-b]pyridin-2-yl)propanamide]	< 1.58
O=C(Nc1cnccn1)[C@@H](CC1CCOCC1)n1ccc(S(=O)(=O)C2CC2)cc1=O [Example 69, (R)-2-(4-(cyclopropylsulfonyl)-2-oxopyridin-1(2H)-yl)-N-(pyrazin-2-yl)-3-(tetrahydro-2H-pyran-4-yl)propanamide]	> 15.8
COc1ccc2nc(NC(=O)[C@@H](CC3CCOCC3)n3ccc(S(=O)(=O)CCCO)cc3=O)sc2n1 [Example 71, (R)-2-(4-(3-hydroxypropylsulfonyl)-2-oxopyridin-1(2H)-yl)-N-(5-methoxythiazolo[5,4-b]pyridin-2-yl)-3-(tetrahydro-2H-pyran-4-yl)propanamide]	> 15.8
COc1ccc2nc(NC(=O)[C@H](CC3CCOCC3)n3ccc(S(=O)(=O)CCCO)cc3=O)sc2n1 [Example 72, (S)-2-(4-(3-hydroxypropylsulfonyl)-2-oxopyridin-1(2H)-yl)-N-(5-methoxythiazolo[5,4-b]pyridin-2-yl)-3-(tetrahydro-2H-pyran-4-yl)propanamide]	1.58 to 15.8
Cn1ccc(NC(=O)[C@@H](CC2CCOCC2)n2ccc(S(=O)(=O)C3CC3)cc2=O)n1 [Example 73, (R)-2-(4-(cyclopropylsulfonyl)-2-oxopyridin-1(2H)-yl)-N-(1-methyl-1H-pyrazol-3-yl)-3-(tetrahydro-2H-pyran-4-yl)propanamide]	> 15.8
Cn1ccc(NC(=O)[C@H](CC2CCOCC2)n2ccc(S(=O)(=O)C3CC3)cc2=O)n1 [Example 74, (S)-2-(4-(cyclopropylsulfonyl)-2-oxopyridin-1(2H)-yl)-N-(1-methyl-1H-pyrazol-3-yl)-3-(tetrahydro-2H-pyran-4-yl)propanamide]	1.58 to 15.8
COc1ccc2nc(NC(=O)[C@@H](CC3CCCCC3)n3ccc(S(=O)(=O)C4CC4)cc3=O)sc2n1 [Example 75, (R)-3-cyclohexyl-2-(4-(cyclopropylsulfonyl)-2-oxopyridin-1(2H)-yl)-N-(5-methoxythiazolo[5,4-b]pyridin-2-yl)propanamide]	1.58 to 15.8
COc1ccc2nc(NC(=O)[C@H](CC3CCCCC3)n3ccc(S(=O)(=O)C4CC4)cc3=O)sc2n1 [Example 76, (S)-3-cyclohexyl-2-(4-(cyclopropylsulfonyl)-2-oxopyridin-1(2H)-yl)-N-(5-methoxythiazolo[5,4-b]pyridin-2-yl)propanamide]	< 1.58
Cc1cc(S(=O)(=O)C2CC2)c(Cl)c(=O)n1[C@@H](CC1CCCCC1)C(=O)Nc1ncc(Cl)s1 [Example 77, (S)-2-(3-chloro-4-(cyclopropylsulfonyl)-6-methyl-2-oxopyridin-1(2H)-yl)-N-(5-chlorothiazol-2-yl)-3-cyclohexylpropanamide]	< 1.58
Cc1cc(S(=O)(=O)C2CC2)c(Cl)c(=O)n1[C@H](CC1CCCCC1)C(=O)Nc1ncc(Cl)s1 [Example 78, (R)-2-(3-chloro-4-(cyclopropylsulfonyl)-6-methyl-2-oxopyridin-1(2H)-yl)-N-(5-chlorothiazol-2-yl)-3-cyclohexylpropanamide]	1.58 to 15.8
Cc1cc(S(=O)(=O)Cc2cccs2)cc(=O)n1C(CC1CCCCC1)C(=O)Nc1ncc(Cl)s1 (stereo not shown) [Example 80, N-(5-chlorothiazol-2-yl)-3-cyclohexyl-2-(6-methyl-2-oxo-4-(thiophen-2-ylmethylsulfonyl)pyridin-1(2H)-yl)propanamide]	1.58 to 15.8
Cc1cc(S(=O)(=O)Cc2ccco2)cc(=O)n1C(CC1CCCCC1)C(=O)Nc1nccs1 (stereo not shown) [Example 81, 3-cyclohexyl-2-(4-(furan-2-ylmethylsulfonyl)-6-methyl-2-oxopyridin-1(2H)-yl)-N-(thiazol-2-yl)propanamide]	< 1.58
Cc1cc(S(=O)(=O)C2CCCC2)cc(=O)n1C(CC1CCCCC1)C(=O)Nc1ncc(Cc2ccc(F)cc2)s1 (stereo not shown) [Example 82, 3-cyclohexyl-2-(4-(cyclopentylsulfonyl)-6-methyl-2-oxopyridin-1(2H)-yl)-N-(5-(4-fluorobenzyl)thiazol-2-yl)propanamide]	< 1.58
Cc1cc(S(=O)(=O)c2cc(C)n(C(CC3CCCCC3)C(=O)Nc3ncc(Cl)s3)c(=O)c2)c(C)o1 (stereo not shown) [Example 83, N-(5-chlorothiazol-2-yl)-3-cyclohexyl-2-(4-(2,5-dimethylfuran-3-ylsulfonyl)-6-methyl-2-oxopyridin-1(2H)-yl)propanamide]	< 1.58
O=C(Nc1nc2ccc(O)cc2s1)C(CC1CCOCC1)n1ccc(S(=O)(=O)C2CC2)cc1=O (stereo not shown) [Example 84, 2-(4-(cyclopropylsulfonyl)-2-oxopyridin-1(2H)-yl)-N-(6-hydroxybenzo[d]thiazol-2-yl)-3-(tetrahydro-2H-pyran-4-yl)propanamide]	> 15.8
Cc1cc(S(=O)(=O)Cc2cccs2)cc(=O)n1[C@@H](CC1CCCCC1)C(=O)Nc1ncc(Cl)s1 [Example 85, (S)-N-(5-chlorothiazol-2-yl)-3-cyclohexyl-2-(6-methyl-2-oxo-4-(thiophen-2-ylmethylsulfonyl)pyridin-1(2H)-yl)propanamide]	< 1.58
Cc1cc(N2CCCC2)cc(=O)n1C(CC1CCCCC1)C(=O)Nc1nccs1 (stereo not shown) [Example 87, 3-cyclohexyl-2-(6-methyl-2-oxo-4-(pyrrolidin-1-yl)pyridin-1(2H)-yl)-N-(thiazol-2-yl)propanamide]	> 15.8
COCCC(C)(C)S(=O)(=O)c1ccn(C(CC2CCOCC2)C(=O)Nc2nc3ccc(OC)nc3s2)c(=O)c1 (stereo not shown) [Example 88, 2-(4-(4-methoxy-2-methylbutan-2-ylsulfonyl)-2-oxopyridin-1(2H)-yl)-N-(5-methoxythiazolo[5,4-b]pyridin-2-yl)-3-(tetrahydro-2H-pyran-4-yl)propanamide]	1.58 to 15.8
Cc1cc(S(=O)(=O)C2CCCC2)cc(=O)n1C(CC1CCCCC1)C(=O)Nc1ncc(CN2CCOCC2)s1 (stereo not shown) [Example 89, 3-cyclohexyl-2-(4-(cyclopentylsulfonyl)-6-methyl-2-oxopyridin-1(2H)-yl)-N-(5-(morpholinomethyl)thiazol-2-yl)propanamide]	< 1.58
Cc1cc(-c2ccccc2)cc(=O)n1[C@@H](CC1CCCCC1)C(=O)Nc1nccs1 [Example 90, (S)-3-cyclohexyl-2-(6-methyl-2-oxo-4-phenylpyridin-1(2H)-yl)-N-(thiazol-2-yl)propanamide]	> 15.8
Cc1cc(-c2ccccc2Cl)cc(=O)n1[C@@H](CC1CCCCC1)C(=O)Nc1nccs1 [Example 91, (S)-2-(4-(2-chlorophenyl)-6-methyl-2-oxopyridin-1(2H)-yl)-3-cyclohexyl-N-(thiazol-2-yl)propanamide]	> 15.8
Cc1cc(-c2cccc(Cl)c2)cc(=O)n1[C@@H](CC1CCCCC1)C(=O)Nc1nccs1 [Example 92, (S)-2-(4-(3-chlorophenyl)-6-methyl-2-oxopyridin-1(2H)-yl)-3-cyclohexyl-N-(thiazol-2-yl)propanamide]	> 15.8
Cc1cc(-c2ccc(Cl)cc2)cc(=O)n1[C@@H](CC1CCCCC1)C(=O)Nc1nccs1 [Example 93, (S)-2-(4-(4-chlorophenyl)-6-methyl-2-oxopyridin-1(2H)-yl)-3-cyclohexyl-N-(thiazol-2-yl)propanamide]	> 15.8
